One assay deals with T1, PD-L1 (Homo sapiens, UniProt Q9NZQ7).
T1 construct: determine if they can specifically dimerize the extracellular domains of PD-L1
As to the kind of experiment: PD-L1/PD-L1 dimerization biochemical protein-protein interaction assay (ALPHA). Format: binding. To be noted: compound-induced PD-L1 dimerization, head prints '1 nM' (0.5 nM His-tagged PD-L1 and 0.5 nM FLAG-tagged PD-L1), read-out: AC50 PDL1 Dimer Alpha 1 nM. The method, then: PD-L1/PD-L1 Dimerization Biochemical Protein-Protein Interaction Assay:
Compounds were tested in biochemical protein-protein interaction assays to determine if they can specifically dimerize the extracellular domains of PD-L1. Dimerization of the proteins (His-tagged PD-L1 and FLAG-tagged PD-L1) is measured using a bead based Amplified Luminescent Proximity Homogeneous Assay (ALPHA) platform. […] Assays are performed in 25 mM Hepes (pH 7.4), 150 mM NaCl, 3.4 mM EDTA, 0.005% Tween 20, and 0.01% BSA. Final protein concentration in the assays were 0.5 nM (His tagged PD-L) and 0.5 nM (FLAG tagged PD-L1). After an assay reaction time of 2 hours at 25° C., 20 μg/mL (final assay concentration) ALPHA assay acceptor beads (anti-His coated) were added and incubated for 60 minutes at 25° C. Binding was measured following a final 60 minute incubation with 40 μg/mL (final assay concentration) ALPHA assay donor beads (anti-FLAG coated). AC50 values were calculated from the fit of the dose-response curves to a four-parameter equation (Table 3).

A further assay addresses PD-1/PD-L1 (Homo sapiens, UniProt Q9NZQ7). The assay is described as follows: PD-1/PD-L1 biochemical protein-protein interaction assay (ALPHA). Format: binding. To be noted: 0.3 nM His tagged PD-L1, 2.5 nM biotinylated Fc-PD-1, 60 minutes at 25° C., read-out: IC50 PD-L1-PD-1 Alpha IC50-mono PD-L1-fcP-D1. The gist of the method: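 Compound blockade of the PD-1/PD-L1 extracellular-domain interaction measured as reduced ALPHA signal after 60 min at 25 °C, pH 7.4 Hepes buffer with EDTA, Tween 20 and BSA. Final proteins: His-tagged PD-L1 0.3 nM, biotinylated Fc-PD-1 2.5 nM; four-parameter curve fit gives IC50.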

The next assay addresses T2, PD-1/PD-L1 interaction (Homo sapiens, UniProt Q9NZQ7).
T2 construct: expressed in transfected cells; host or cells: CHO cells (aAPC-PD-L1) co-cultured with Jurkat cells overexpressing PD-1 and an NFAT-luciferase reporter
As to the kind of experiment: PD-1/PD-L1 NFAT reporter co-culture assay. Format: cell-based. To be noted: Jurkat PD-1 NFAT-luciferase cells co-cultured with aAPC-PD-L1 CHO cells, 6 hrs at 37° C.; read-out: EC50 NFAT Luciferase. The gist of the method:
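Jurkat cells overexpressing PD-1 with NFAT-luciferase mixed with compounds and plated onto CHO aAPCs expressing anti-CD3 and PD-L1, RPMI with 2% FBS. Co-culture 6 h at 37 °C; luminescence read with ONE-Glo. EC50 from four-parameter fit.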

T2 sequence (Q9NZQ7 19-290): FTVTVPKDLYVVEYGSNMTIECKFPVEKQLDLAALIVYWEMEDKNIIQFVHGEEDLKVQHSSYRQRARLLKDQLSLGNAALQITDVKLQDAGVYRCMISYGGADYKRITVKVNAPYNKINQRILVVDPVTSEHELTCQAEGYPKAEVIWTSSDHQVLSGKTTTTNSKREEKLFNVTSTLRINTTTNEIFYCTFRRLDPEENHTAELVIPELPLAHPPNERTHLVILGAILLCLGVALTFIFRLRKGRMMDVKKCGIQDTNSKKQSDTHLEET
Sequence of PD-1/PD-L1 (Q9NZQ7 19-238 limits assumed): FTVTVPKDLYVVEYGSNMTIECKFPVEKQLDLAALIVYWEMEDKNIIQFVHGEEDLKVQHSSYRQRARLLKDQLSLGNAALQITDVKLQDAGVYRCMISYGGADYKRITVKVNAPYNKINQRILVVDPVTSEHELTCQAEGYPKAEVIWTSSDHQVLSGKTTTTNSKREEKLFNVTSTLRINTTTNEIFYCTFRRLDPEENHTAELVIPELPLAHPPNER
T1 sequence (Q9NZQ7 19-238 limits assumed): as above
T1 sequence (Q9NZQ7 19-238 limits assumed): as above

`COc1nc(-c2cccc(-c3cccc4c3CC[C@@H]4Oc3nc(OC)c(CN4CC5(CCC(=O)N5)C4)cc3Br)c2Cl)ccc1CN1CC2(CCC(=O)N2)C1` [Example 735]: on PD-L1, the AC50 (commonly the midpoint of the concentration-response curve, whichever way the signal moves) is 104 nM. Besides, the 50% inhibitory concentration (IC50) – broadly, the point on the concentration scale where inhibition reaches its midpoint – on PD-1/PD-L1 was found to be 0.345 nM. Besides, at PD-1/PD-L1 interaction, the EC50 – broadly, the midpoint of the concentration-response curve – was 95 nM.

Turning to `COc1nc(-c2cccc(-c3cccc4c3CC[C@@H]4Oc3nc(OCc4cncc(C#N)c4)c(CN[C@@](C)(CO)C(=O)O)cc3Cl)c2Cl)ccc1C1=NCCN1` [Example 745], the AC50 at PD-L1 came to 19.2 nM. Also, on PD-1/PD-L1, the IC50 stood at 0.064 nM. At PD-1/PD-L1 interaction, the EC50 was found to be 113 nM.

Consider `COc1nc(-c2cccc(-c3cccc4c3CC[C@@H]4Oc3nc(OC)c(CN4CCC[C@@H](C(=O)O)C4)cc3Cl)c2Cl)ccc1CNC[C@@H]1CCC(=O)N1` [Example 758], for which the AC50 at PD-L1 came to 36.7 nM. In addition, the concentration for half-maximal inhibition (IC50) on PD-1/PD-L1 came out at 0.064 nM. The EC50 at PD-1/PD-L1 interaction came to 29 nM.

Consider `COc1nc(-c2cccc(-c3cccc(-c4ccc5c(C[N+](C)(C)C)c[nH]c5c4)c3Cl)c2Cl)ccc1CNC[C@@H]1CCC(=O)N1` [Example 609], for which the AC50 on PD-L1 came to 143 nM. Besides, at PD-1/PD-L1, the IC50 was found to be 0.387 nM. For the same compound, at PD-1/PD-L1 interaction, the concentration giving a half-maximal response (EC50) came to 541 nM.

As for `COc1nc(-c2cccc(-c3cccc4c3CC[C@@H]4Oc3nc(OC)c(CN4CC5(CCC(=O)N5)C4)cc3Cl)c2Cl)ccc1CNC[C@@H]1CCC(=O)N1` [Example 726], at PD-L1, the AC50 amounted to 81.9 nM. For the same compound, the half-maximal inhibitory concentration (IC50) on PD-1/PD-L1 was 0.125 nM. Moreover, the EC50 on PD-1/PD-L1 interaction is 76 nM.

For `Cc1c(COc2cc(OCc3cncc(C#N)c3)c(CNC[C@@H](O)CC(=O)O)cc2Cl)cccc1-c1cccc(-c2cn(CC3CCNC3)nn2)c1C` (stereo partly shown) [Example 331], on PD-L1, the AC50 is 500 nM. The IC50 on PD-1/PD-L1 is 0.273 nM. The EC50 on PD-1/PD-L1 interaction was found to be 232 nM.

For the compound `COc1nc(-c2cccc(-c3cccc4c3CC[C@@H]4Oc3nc(OCc4cncc(C#N)c4)c(CN[C@@](C)(CO)C(=O)O)cc3Cl)c2Cl)ccc1CN1CC2(CCC(=O)N2)C1` [Example 684], the AC50 on PD-L1 worked out at 41.2 nM. The IC50 on PD-1/PD-L1 is 0.064 nM. Further, the EC50 at PD-1/PD-L1 interaction came out at 36 nM.

`CS(=O)(=O)c1cncc(COc2nc(O[C@H]3CCc4c(-c5cccc(-c6ccc(OCCNCCO)cc6)c5Cl)cccc43)c(Cl)cc2CNC[C@@H](O)CC(=O)O)c1` [Example 637, (S)-4-(((5-chloro-6-(((S)-4-(2-chloro-4′-(2-((2-hydroxyethyl)amino)ethoxy)-[1,1′-biphenyl]-3-yl)-2,3-dihydro-1H-inden-1-yl)oxy)-2-((5-(methylsulfonyl)pyridin-3-yl)methoxy)pyridin-3-yl)methyl)amino)-3-hydroxybutanoic acid]: on PD-L1, the AC50 is 20.8 nM. Moreover, at PD-1/PD-L1, the IC50 was 0.064 nM. Besides, the EC50 on PD-1/PD-L1 interaction amounted to 90 nM.

For `COc1cc(OCc2cccc(-c3cccc(COc4cc(OC)c(CNC[C@@H](O)CC(=O)O)cc4C(F)(F)F)c3C)c2C)c(Cl)cc1CNC[C@@H](O)CC(=O)O` [Example 357, (S)-4-((4-((3′-((4-((((S)-3-carboxy-2-hydroxypropyl)amino)methyl)-2-chloro-5-methoxyphenoxy)methyl)-2,2′-dimethyl-[1,1′-biphenyl]-3-yl)methoxy)-2-methoxy-5-(trifluoromethyl)benzyl)amino)-3-hydroxybutanoic acid], the AC50 on PD-L1 is at least 10000 nM. At PD-1/PD-L1, the IC50 came out at 0.358 nM. The EC50 at PD-1/PD-L1 interaction stood at 202 nM.

Regarding `CS(=O)(=O)c1cncc(COc2nc(O[C@H]3CCc4c(-c5cccc(-c6ccc(CN)cc6)c5Cl)cccc43)c(Cl)cc2CNC[C@@H](O)CC(=O)O)c1` [Example 659], on PD-L1, the AC50 was determined as 22.1 nM. For the same compound, the IC50 at PD-1/PD-L1 amounted to 0.064 nM. The EC50 at PD-1/PD-L1 interaction was determined as 51 nM.

On to `COc1nc(-c2cccc(-c3cccc(-c4ccc5c(CNC[C@@H]6CCC(=O)N6)cccc5c4)c3Cl)c2Cl)ccc1CNC[C@@H]1CCC(=O)N1` [Example 604], for which the AC50 on PD-L1 stood at 935 nM. On PD-1/PD-L1, the IC50 was found to be 4.87 nM. Further, the EC50 at PD-1/PD-L1 interaction amounted to 552 nM.

Turning to `Cc1c(COc2cc(OCc3cncc(C#N)c3)c(CN[C@@](C)(CO)C(=O)O)cc2Cl)cccc1-c1cccc(-c2ccc(CC3CCCN3)cc2)c1C` (stereo partly drawn) [Example 292, (2S)-2-((5-chloro-2-((5-cyanopyridin-3-yl)methoxy)-4-((2,2′-dimethyl-4″-(pyrrolidin-2-ylmethyl)-[1,1′:3′,1″-terphenyl]-3-yl)methoxy)benzyl)amino)-3-hydroxy-2-methylpropanoic acid], on PD-L1, the AC50 worked out at 230 nM. In addition, on PD-1/PD-L1, the IC50 was found to be 0.509 nM. The EC50 on PD-1/PD-L1 interaction was 615 nM.

On to `Cc1c(COc2cc(OCc3cncc(C(=O)O)c3)c(CN[C@@](C)(CO)C(=O)O)cc2Cl)cccc1-c1cccc(-c2ccc(OCCN3CC[C@@H](O)C3)cc2)c1C` [Example 522], for which, on PD-L1, the AC50 amounted to 74.3 nM. Further, the IC50 at PD-1/PD-L1 stood at 0.064 nM. Besides, the EC50 at PD-1/PD-L1 interaction was found to be 195 nM.

Regarding `Cc1c(COc2cc(OCc3cncc(C#N)c3)c(CNC[C@@H](O)CC(=O)O)cc2Cl)cccc1-c1cccc(-c2ccc3c(c2)CC(=O)N3CCN(C)C)c1C` [Example 448], the AC50 at PD-L1 is 903 nM. In addition, on PD-1/PD-L1, the IC50 worked out at 0.618 nM. Moreover, the EC50 on PD-1/PD-L1 interaction worked out at 1010 nM.

With `Cc1c(COc2cc(OCc3cncc(C#N)c3)c(CN3C[C@@H](O)C[C@H]3C(=O)O)cc2Cl)cccc1-c1cccc(-c2ccc(OCCNCCO)cc2)c1C` [Example 510], the AC50 at PD-L1 was found to be 232 nM. The IC50 on PD-1/PD-L1 turned out to be 0.064 nM. Besides, the EC50 on PD-1/PD-L1 interaction was 147 nM.

For `Cc1c(COc2cc(OCc3cncc(C#N)c3)c(CN[C@@](C)(CO)C(=O)O)cc2Cl)cccc1-c1cccc(-c2ccc(O[C@@H]3CCNC[C@H]3F)cc2)c1Cl` [Example 445], the half-maximal activity concentration (AC50) on PD-L1 stood at 266 nM. Also, on PD-1/PD-L1, the IC50 turned out to be 0.719 nM. Moreover, the EC50 on PD-1/PD-L1 interaction amounted to 1490 nM.

As for `Cc1c(OCc2cc(OCc3cncc(C#N)c3)c(CN[C@@](C)(CO)C(=O)O)cc2Cl)cccc1-c1cccc(-c2ccc(OCCN[C@@](C)(CO)C(=O)O)cc2)c1C` [Example 388, (S)-2-((4-(((4″-(2-(((S)-2-carboxy-1-hydroxypropan-2-yl)amino)ethoxy)-2,2′-dimethyl-[1,1′:3′,1″-terphenyl]-3-yl)oxy)methyl)-5-chloro-2-((5-cyanopyridin-3-yl)methoxy)benzyl)amino)-3-hydroxy-2-methylpropanoic acid], the AC50 at PD-L1 is at least 10000 nM. At PD-1/PD-L1 interaction, the EC50 was 225 nM.

As for `Cc1c(COc2nc(OCCCC#N)c(CNC[C@@H](O)CC(=O)O)cc2Br)cccc1-c1cccc(COc2nc(OCCCC#N)c(CNC[C@@H](O)CC(=O)O)cc2Br)c1C` [Example 144, (3S,3′S)-4,4′-((((((2,2′-dimethyl-[1,1′-biphenyl]-3,3′-diyl)bis(methylene))bis(oxy))bis(5-bromo-2-(3-cyanopropoxy)pyridine-6,3-diyl))bis(methylene))bis(azanediyl))bis(3-hydroxybutanoic acid)], at PD-L1, the AC50 was determined as 206 nM. In addition, the EC50 at PD-1/PD-L1 interaction came to 201 nM.

Regarding `COc1nc(OCc2cccc(-c3cccc(COc4nc(OC)c(CNC[C@H](O)CC(=O)O)cc4Br)c3Cl)c2Cl)c(Br)cc1CNC[C@H](O)CC(=O)O` [Example 191, (3R,3′R)-4,4′-((((((2,2′-Dichloro-[1,1′-biphenyl]-3,3′-diyl)bis(methylene))bis(oxy))bis(5-bromo-2-methoxypyridine-6,3-diyl))bis(methylene))bis(azanediyl))bis(3-hydroxybutanoic acid)], at PD-L1, the AC50 is at least 10000 nM. Also, the EC50 at PD-1/PD-L1 interaction worked out at 60 nM.

Take `Cc1c(COc2cc(OCc3cncc(C#N)c3)c(CNC[C@@H](O)CC(=O)O)cc2Cl)cccc1-c1cccc(-c2ccc3oc(CNC[C@@H](O)CC(=O)O)cc3c2)c1C` [Example 210, (S)-4-(((5-(3′-((4-((((S)-3-carboxy-2-hydroxypropyl)amino)methyl)-2-chloro-5-((5-cyanopyridin-3-yl)methoxy)phenoxy)methyl)-2,2′-dimethyl-[1,1′-biphenyl]-3-yl)benzofuran-2-yl)methyl)amino)-3-hydroxybutanoic acid]: the AC50 at PD-L1 came to 83.1 nM. The EC50 at PD-1/PD-L1 interaction was 114 nM.

Regarding `N#Cc1cncc(COc2nc(OCc3cccc(-c4cccc(COc5nc(OCc6cncc(C#N)c6)c(CNC[C@@H](O)CC(=O)O)cc5Br)c4Cl)c3Cl)c(Br)cc2CNC[C@@H](O)CC(=O)O)c1` [Example 193, (3S,3′S)-4,4′-((((((2,2′-Dichloro-[1,1′-biphenyl]-3,3′-diyl)bis(methylene))bis(oxy))bis(5-bromo-2-((5-cyanopyridin-3-yl)methoxy)pyridine-6,3-diyl))bis(methylene))bis(azanediyl))bis(3-hydroxybutanoic acid)], the AC50 on PD-L1 stood at 132 nM. For the same compound, the EC50 at PD-1/PD-L1 interaction was determined as 99 nM.
